# Reference: patent US9782412B2, “Preventive and/or therapeutic agent of immune disease” (TAIHO PHARMACEUTICAL CO., LTD., priority 2015, dated 2017)
# Tests used:
# A431 cells/TMD8 cells = experiment: Proliferation inhibitory activity against cell lines expressing BTK and EGFR, comparison of selectivity; assay type: cell-based, human; conditions: cells cultured three days with compound, CELLTITER GLO
# Text: TMD8 cells, which are of a diffuse large B-cell lymphoma cell line expressing BTK, were suspended in RPMI1640 medium (Life Technologies Corp.) containing 10% fetal bovine serum. A431 cells, which are of an EGFR-overexpressing, highly activated human epidermoid carcinoma cell line, were suspended in DMEM, high glucose medium (Life Technologies Corp.) containing 10% fetal bovine serum. The cell suspensions were inoculated into each well of 384-well flat-bottomed microplates, and the cells were cultured for one day at 37° C. in an incubator containing 5% carbon dioxide gas. […] A DMSO solution of the test compounds was diluted with the medium used in the suspension of the each cell, and this was added to each of the wells of the cell culture plates such that the final concentration of DMSO would be 0.2%. The cells were further cultured for three days at 37° C. in an incubator containing 5% carbon dioxide gas. […] Proliferation inhibition ratio (%)=(C−T)/(C−C0)×100
# T: Luminescence intensity of a well in which the test compound was added
# C: Luminescence intensity of a well in which the test compound was not added
# C0: Luminescence intensity of a well measured before the addition of the test compound
# When a comparison is made between the cell proliferation inhibitory activity against A431 cells that depends on the EGFR proliferation signaling and the cell proliferation inhibitory activity against TMD8 cells that depends on the BTK proliferation signaling, the influence of the respective kinases at a cellular level is able to be evaluated. That is, when the “A431 cell proliferation inhibition ratio/TMD8 cell proliferation inhibition ratio” is calculated, it is contemplated that as the value of the ratio is larger, the selectivity to BTK over EGFR in the cells is higher.
# [1] = biological target: T1, recombinant human BTK protein (Homo sapiens, UniProt Q06187); experiment: Measurement of BTK inhibitory activity (in vitro); assay type: biochemical; conditions: ATP 45 μM, 40 minutes at 25° C.
# T1 construct: purchased Carna Biosciences, Inc
# Text: Regarding the setting of the conditions for a method for measuring the inhibitory activity of a compound against BTK kinase activity in vitro, it is described in the consumable reagent supplies price list for LabChip (registered trademark) series of PerkinElmer, Inc. that FL-PEPTIDE 2 corresponds to a substrate peptide for the measurement of BTK kinase activity. Therefore, FL-PEPTIDE 2 was used as a substrate. The purified recombinant human BTK protein used in the test was purchased from Carna Biosciences, Inc.
# Regarding the measurement of the inhibitory activity of the compounds, firstly, the compounds of the present invention were diluted stepwise with DMSO. Subsequently, BTK protein, a substrate peptide (final concentration was 1 μM), magnesium chloride (final concentration was 10 mM), ATP (final concentration was 45 μM), and a DMSO solution of the compounds of the present invention (final concentration of DMSO was 5%) were added to a buffer solution for kinase reaction (20 mM HEPES (pH 7.5), 2 mM dithiotheitol, 0.01% Triton X-100), and after the solution was incubated for 40 minutes at 25° C., a kinase reaction was carried out. The reaction was terminated by adding EDTA thereto so as to obtain a final concentration of 30 mM. Finally, a substrate peptide that was not phosphorylated (S) and a phosphorylated peptide (P) were separated and detected by microchannel capillary electrophoresis with a LabChip EZ Reader II (PerkinElmer, Inc.).
# T1 sequence (Q06187 whole entry): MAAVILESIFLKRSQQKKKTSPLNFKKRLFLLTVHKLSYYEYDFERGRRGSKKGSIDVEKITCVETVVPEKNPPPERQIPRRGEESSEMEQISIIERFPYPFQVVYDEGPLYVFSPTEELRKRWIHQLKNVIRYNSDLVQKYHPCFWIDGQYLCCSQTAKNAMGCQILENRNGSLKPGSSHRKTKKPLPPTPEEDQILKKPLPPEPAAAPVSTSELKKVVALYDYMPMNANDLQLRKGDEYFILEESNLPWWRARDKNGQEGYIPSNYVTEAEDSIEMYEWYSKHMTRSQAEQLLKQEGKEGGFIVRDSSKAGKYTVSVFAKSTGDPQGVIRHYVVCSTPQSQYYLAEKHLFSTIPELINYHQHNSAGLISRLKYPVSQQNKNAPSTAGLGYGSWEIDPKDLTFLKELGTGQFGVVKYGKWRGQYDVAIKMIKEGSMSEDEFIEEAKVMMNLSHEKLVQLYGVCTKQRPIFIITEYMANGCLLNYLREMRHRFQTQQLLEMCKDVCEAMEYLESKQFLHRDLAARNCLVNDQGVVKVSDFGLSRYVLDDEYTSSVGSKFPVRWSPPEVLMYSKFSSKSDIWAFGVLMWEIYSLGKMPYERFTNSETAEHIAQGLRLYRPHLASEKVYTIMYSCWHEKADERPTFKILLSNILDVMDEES
Structure (SMILES),A431 cell proliferation inhibition ratio/TMD8 cell proliferation inhibition ratio (A431 cells/TMD8 cells),IC50 [1]
"C=CC(=O)N1CCC[C@@H](n2nc(C(=O)Nc3nc4cc(Br)ccc4o3)c3c(N)ncnc32)C1 [Example 2, (R)-1-(1-acryloylpiperidin-3-yl)-4-amino-N-(5-bromobenzo[d]oxazol-2-yl)-1H-pyrazolo[3,4-d]pyrimidine-3-carboxamide]",>1033.6,
"C=CC(=O)N1CCC[C@@H](n2nc(C(=O)Nc3nc4cc(OC)ccc4o3)c3c(N)ncnc32)C1 [Example 7, (R)-1-(1-acryloylpiperidin-3-yl)-4-amino-N-(5-methoxybenzo[d]oxazol-2-yl)-1H-pyrazolo[3,4-d]pyrimidine-3-carboxamide]",,0.457 nM
"CCN(C)C/C=C/C(=O)N1CCC[C@@H](n2nc(C(=O)Nc3nc4cc(Cl)ccc4o3)c3c(N)ncnc32)C1 [Example 16, (R,E)-4-amino-N-(5-chlorobenzo[d]oxazol-2-yl)-1-(1-(4-(ethyl(methyl)amino)but-2-enoyl)piperidin-3-yl)-1H-pyrazolo[3,4-d]pyrimidine-3-carboxamide]",>16313.2,
"CCN(CC)C/C=C/C(=O)N1CCC[C@@H](n2nc(C(=O)Nc3nc4cc(Cl)ccc4o3)c3c(N)ncnc32)C1 [Example 17, (R,E)-4-amino-N-(5-chlorobenzo[d]oxazol-2-yl)-1-(1-(4-(diethylamino)but-2-enoyl)piperidin-3-yl)-1H-pyrazolo[3,4-d]pyrimidine-3-carboxamide]",>12345.7,
"CC(C)N(C)C/C=C/C(=O)N1CCC[C@@H](n2nc(C(=O)Nc3nc4cc(Cl)ccc4o3)c3c(N)ncnc32)C1 [Example 18, (R,E)-4-amino-N-(5-chlorobenzo[d]oxazol-2-yl)-1-(1-(4-(isopropyl(methyl)amino)but-2-enoyl)piperidin-3-yl)-1H-pyrazolo[3,4-d]pyrimidine-3-carboxamide]",>15625.0,
"Nc1ncnc2c1c(C(=O)Nc1nc3cc(Cl)ccc3o1)nn2[C@@H]1CCCN(C(=O)/C=C/CN2CCCC2)C1 [Example 19, (R,E)-4-amino-N-(5-chlorobenzo[d]oxazol-2-yl)-1-(1-(4-(pyrrolidin-1-yl)but-2-enoyl)piperidin-3-yl)-1H-pyrazolo[3,4-d]pyrimidine-3-carboxamide]",>17825.3,
"Nc1ncnc2c1c(C(=O)Nc1nc3cc(Cl)ccc3o1)nn2[C@@H]1CCCN(C(=O)/C=C/CN2CCCCC2)C1 [Example 20, (R,E)-4-amino-N-(5-chlorobenzo[d]oxazol-2-yl)-1-(1-(4-(piperidin-1-yl)but-2-enoyl)piperidin-3-yl)-1H-pyrazolo[3,4-d]pyrimidine-3-carboxamide]",>19120.5,
CC#CC(=O)N1CCC[C@@H](n2nc(C(=O)Nc3nc4ccccc4o3)c3c(N)ncnc32)C1 [Example 22],,14.2 nM
"C=CC(=O)N1CCC[C@@H](n2nc(C(=O)Nc3nc4cc(C)c(C)cc4o3)c3c(N)ncnc32)C1 [Example 23, (R)-1-(1-acryloylpiperidin-3-yl)-4-amino-N-(5,6-dimethylbenzo[d]oxazol-2-yl)-1H-pyrazolo[3,4-d]pyrimidine-3-carboxamide]",>10680,
"C=CC(=O)N1CC[C@@H](n2nc(C(=O)Nc3nc4ccccc4o3)c3c(N)ncnc32)C1 [Example 27, (R)-1-(1-acryloylpyrrolidin-3-yl)-4-amino-N-(benzo[d]oxazol-2-yl)-1H-pyrazolo[3,4-d]pyrimidine-3-carboxamide]",,1.43 nM
"CN(C)C/C=C/C(=O)N1CC[C@@H](n2nc(C(=O)Nc3nc4cc(Cl)ccc4o3)c3c(N)ncnc32)C1 [Example 32, (R,E)-4-amino-N-(5-chlorobenzo[d]oxazol-2-yl)-1-(1-(4-(dimethylamino)but-2-enoyl)pyrrolidin-3-yl)-1H-pyrazolo[3,4-d]pyrimidine-3-carboxamide]",>11123.5,
"CCN(CC)C/C=C/C(=O)N1CC[C@@H](n2nc(C(=O)Nc3nc4cc(Cl)ccc4o3)c3c(N)ncnc32)C1 [Example 34, (R,E)-4-amino-N-(5-chlorobenzo[d]oxazol-2-yl)-1-(1-(4-(diethylamino)but-2-enoyl)pyrrolidin-3-yl)-1H-pyrazolo[3,4-d]pyrimidine-3-carboxamide]",>22471.9,
"CC(C)N(C)C/C=C/C(=O)N1CC[C@@H](n2nc(C(=O)Nc3nc4cc(Cl)ccc4o3)c3c(N)ncnc32)C1 [Example 35, (R,E)-4-amino-N-(5-chlorobenzo[d]oxazol-2-yl)-1-(1-(4-(isopropyl(methyl)amino)but-2-enoyl)pyrrolidin-3-yl)-1H-pyrazolo[3,4-d]pyrimidine-3-carboxamide]",>18691.6,
"C=CC(=O)N1CC[C@@H](n2nc(C(=O)Nc3nc4cc(C#N)ccc4o3)c3c(N)ncnc32)C1 [Example 39, (R)-1-(1-acryloylpyrrolidin-3-yl)-4-amino-N-(5-cyanobenzo[d]oxazol-2-yl)-1H-pyrazolo[3,4-d]pyrimidine-3-carboxamide]",>3510.0,
"C=CC(=O)N1CC[C@@H](n2nc(C(=O)Nc3nc4cc(CCOC)ccc4o3)c3c(N)ncnc32)C1 [Example 40, (R)-1-(1-acryloylpyrrolidin-3-yl)-4-amino-N-(5-(2-methoxyethyl)benzo[d]oxazol-2-yl)-1H-pyrazolo[3,4-d]pyrimidine-3-carboxamide]",>3159.6,
"CN(C)C/C=C/C(=O)N1CC[C@@H](n2cc(C(=O)Nc3nc4cc(Cl)ccc4o3)c3c(N)ncnc32)C1 [Example 49, (R,E)-4-amino-N-(5-chlorobenzo[d]oxazol-2-yl)-7-(1-(4-(dimethylamino)but-2-enoyl)pyrrolidin-3-yl) 7H-pyrrolo[2,3-d]pyrimidine-5-carboxamide]",>3260.5,
"CCN(C)C/C=C/C(=O)N1CC[C@@H](n2cc(C(=O)Nc3nc4cc(Cl)ccc4o3)c3c(N)ncnc32)C1 [Example 50, (R,E)-4-amino-N-(5-chlorobenzo[d]oxazol-2-yl)-7-(1-(4-(ethyl(methyl)amino)but-2-enoyl)pyrrolidin-3-yl) 7H-pyrrolo[2,3-d]pyrimidine-5-carboxamide]",>2767.8,
"CCN(CC)C/C=C/C(=O)N1CC[C@@H](n2cc(C(=O)Nc3nc4cc(Cl)ccc4o3)c3c(N)ncnc32)C1 [Example 51, (R,E)-4-amino-N-(5-chlorobenzo[d]oxazol-2-yl)-7-(1-(4-(diethylamino)but-2-enoyl)pyrrolidin-3-yl) 7H-pyrrolo[2,3-d]pyrimidine-5-carboxamide]",>2044.6,
"CC(C)N(C)C/C=C/C(=O)N1CC[C@@H](n2cc(C(=O)Nc3nc4cc(Cl)ccc4o3)c3c(N)ncnc32)C1 [Example 52, (R,E)-4-amino-N-(5-chlorobenzo[d]oxazol-2-yl)-7-(1-(4-(isopropyl(methyl)amino)but-2-enoyl)pyrrolidin-3-yl) 7H-pyrrolo[2,3-d]pyrimidine-5-carboxamide]",>3617.9,
"Nc1ncnc2c1c(C(=O)Nc1nc3cc(Cl)ccc3o1)cn2[C@@H]1CCN(C(=O)/C=C/CN2CCCC2)C1 [Example 53, (R,E)-4-amino-N-(5-chlorobenzo[d]oxazol-2-yl)-7-(1-(4-(pyrrolidin-1-yl)but-2-enoyl)pyrrolidin-3-yl) 7H-pyrrolo[2,3-d]pyrimidine-5-carboxamide]",>1535.4,
"Nc1ncnc2c1c(C(=O)Nc1nc3cc(Cl)ccc3o1)cn2[C@@H]1CCN(C(=O)/C=C/CN2CCCCC2)C1 [Example 54, (R,E)-4-amino-N-(5-chlorobenzo[d]oxazol-2-yl)-7-(1-(4-(piperidin-1-yl)but-2-enoyl)pyrrolidin-3-yl) 7H-pyrrolo[2,3-d]pyrimidine-5-carboxamide]",>2675.9,
